This note sets out measurements from patent US6110939A, “(Benzimidazolyl- and imidazopyridinyl) containing 1-(1,2-disubstituted piperidinyl) derivatives” (Janssen Pharmaceutica N.V., priority 1995, dated 2000).

For this assay, the system named is substance P induced relaxation of the pig coronary arteries. The assay is described as follows: Antagonism of substance P induced relaxation of the pig coronary arteries. The format is cell-based. As to conditions: Sus scrofa, 0.5 h, response to 10^-9 M substance P, 30 min incubation; for inhibition at 0.003 µM: test compound 3 × 10^-9; for inhibition at 0.03 µM: test compound 3 × 10^-8. The method, then: Antagonism of substance P induced relaxation of the pig coronary arteries
Segments of coronary arteries taken from pigs (killed by injection of an overdose of sodium pentobarbital) were inverted and mounted for recording of isometric tension in organ baths (volume 20 ml) with the endothelium at the outside. The preparations were bathed in Krebs - Henseleit solution. The solution was kept at 37° C. and gassed with a mixture of O2 /CO2 (95/5). After stabilisation of the preparations, prostaglandin F2α (10^-5 M) was administered to induce a contraction. This was repeated until contractile responses became stable. Then prostaglandin F2α was again administered and substance P (3×10^-10 M and 10^-9 M cumulatively) was added. […] After washing away the agonists, a known concentration of a compound of formula (I) was added. After an incubation period of 30 minutes, prostaglandin F2α (10^-5 M) and the same concentrations of substance P as described above were again administered in the presence of the compound to be tested.

Each structure is given as a SMILES string.

As a reminder, the inhibition is the share of the control response that was lost under treatment. Regarding `Cc1ncc(Cn2c(NC3CCN([C@@H]4CCN(C(=O)Nc5cc(C(F)(F)F)cc(C(F)(F)F)c5)[C@@H](Cc5ccccc5)C4)CC3)nc3ccccc32)o1` (racemic) [Compound 52, (±)-trans-N-[3,5-bis(trifluoromethyl)phenyl]-4-[4-[[1-[(2-methyl-5-oxazolyl)methyl]-1H-benzimidazol-2-yl]amino]-1-piperidinyl]-2-(phenylmethyl)-1-piperidinecarboxamide], testing at 0.003 µM gave an inhibition of 6.3%.
`CCOCCn1c(NC2CCN([C@H]3CCN(C(=O)c4cc(C)cc(C)c4)[C@@H](Cc4ccccc4)C3)CC2)nc2ccccc21` (relative stereo) [Compound 1] returned an inhibition at 0.03 µM of 15%.
Turning to `CCOCCn1c(NC2CCN([C@@H]3CCN(C(=O)c4cc(C)cc(C)c4)[C@@H](Cc4ccccc4)C3)CC2)nc2ccccc21` (relative stereo) [Compound 2], the inhibition at 0.03 µM worked out at 41.1%.
Turning to `Cc1cc(C)cc(C(=O)N2CC[C@H](N3CCC(Nc4nc5ccccc5n4Cc4ccccc4F)CC3)C[C@@H]2Cc2ccccc2)c1` (relative stereo) [Compound 3], testing at 0.3 µM (test compound 3 × 10^-7) gave an inhibition of 35.2%.
With `Cc1cc(C)cc(C(=O)N2CC[C@@H](N3CCC(Nc4nc5ccccc5n4Cc4ccccc4F)CC3)C[C@@H]2Cc2ccccc2)c1` (relative stereo) [Compound 4], at 0.03 µM the inhibition was 10.2%.
Compound `CCOCCn1c(NC2CCN([C@H]3CCN(C(=O)c4cc(C(F)(F)F)cc(C(F)(F)F)c4)[C@@H](Cc4ccccc4)C3)CC2)nc2ccccc21` (relative stereo) [Compound 5] showed an inhibition at 0.03 µM of 80.7%.
With `CCOCCn1c(NC2CCN([C@@H]3CCN(C(=O)c4cc(C(F)(F)F)cc(C(F)(F)F)c4)[C@@H](Cc4ccccc4)C3)CC2)nc2ccccc21` (relative stereo) [Compound 6, (±)-trans-1-[1,3-bis(trifluoromethyl)-benzoyl]-4-[4-[[1-(2-ethoxyethyl)-1H-benzimidazol-2-yl]amino]-1-piperidinyl]-2-(phenylmethyl)piperidine], testing at 0.03 µM gave an inhibition of 85.3%.
For `Cc1cc(C)cc(C(=O)N2CC[C@H](N3CCC(Nc4nc5ccccc5n4Cc4cccs4)CC3)C[C@@H]2Cc2ccccc2)c1` (relative stereo) [Compound 7], testing at 0.03 µM gave an inhibition of 54%.
Compound `Cc1cc(C)cc(C(=O)N2CC[C@@H](N3CCC(Nc4nc5ccccc5n4Cc4cccs4)CC3)C[C@@H]2Cc2ccccc2)c1` (relative stereo) [Compound 8] yielded an inhibition at 0.01 µM (test compound 1 × 10^-8) of 14.7%.
For the compound `Cc1cc(C)cc(C(=O)N2CC[C@H](N3CCC(Nc4nc5ccccc5n4Cc4cscn4)CC3)C[C@@H]2Cc2ccccc2)c1` (relative stereo) [Compound 9], testing at 0.03 µM gave an inhibition of 78.1%.
Turning to `Cc1cc(C)cc(C(=O)N2CC[C@@H](N3CCC(Nc4nc5ccccc5n4Cc4cscn4)CC3)C[C@@H]2Cc2ccccc2)c1` (relative stereo) [Compound 10], the inhibition at 0.03 µM stood at 89.3%.
In the case of `Cc1cc(C)cc(C(=O)N2CC[C@H](N3CCC(Cc4nc5ccccc5n4Cc4csc(C)n4)CC3)C[C@@H]2Cc2ccccc2)c1` (relative stereo) [Compound 11], at 0.03 µM the inhibition was 81.1%.
`Cc1cc(C)cc(C(=O)N2CC[C@@H](N3CCC(Cc4nc5ccccc5n4Cc4csc(C)n4)CC3)C[C@@H]2Cc2ccccc2)c1` (relative stereo) [Compound 12] came in with an inhibition at 0.03 µM of 92.3%.
With `Cc1ncc(Cn2c(NC3CCN([C@H]4CCN(C(=O)c5cc(C(F)(F)F)cc(C(F)(F)F)c5)[C@@H](Cc5ccccc5)C4)CC3)nc3ccccc32)o1` (relative stereo) [Compound 15], testing at 0.03 µM gave an inhibition of 84.6%.
The same measure, in the same setting: then `Cc1ncc(Cn2c(NC3CCN([C@@H]4CCN(C(=O)c5cc(C(F)(F)F)cc(C(F)(F)F)c5)[C@@H](Cc5ccccc5)C4)CC3)nc3ccccc32)o1` (relative stereo) [Compound 16], with 88.8%; and `Cc1nc(C)c(Cn2c(NC3CCN([C@H]4CCN(C(=O)c5cc(C(F)(F)F)cc(C(F)(F)F)c5)[C@@H](Cc5ccccc5)C4)CC3)nc3cccnc32)o1` (relative stereo) [Compound 17], with 94.5%.
Take `Cc1nc(C)c(Cn2c(NC3CCN([C@@H]4CCN(C(=O)c5cc(C(F)(F)F)cc(C(F)(F)F)c5)[C@@H](Cc5ccccc5)C4)CC3)nc3cccnc32)o1` (relative stereo) [Compound 18]: the inhibition at 0.003 µM was determined as 73.7%.
For the compound `Cc1ccc(Cn2c(NC3CCN([C@H]4CCN(C(=O)c5cc(C(F)(F)F)cc(C(F)(F)F)c5)[C@@H](Cc5ccccc5)C4)CC3)nc3cccnc32)o1` (relative stereo) [Compound 19], at 0.003 µM the inhibition was 79.5%.
Compound `Cc1ccc(Cn2c(NC3CCN([C@@H]4CCN(C(=O)c5cc(C(F)(F)F)cc(C(F)(F)F)c5)[C@@H](Cc5ccccc5)C4)CC3)nc3cccnc32)o1` (relative stereo) [Compound 20] came in with an inhibition at 0.003 µM of 68.9%.
With `O=C(c1cc(C(F)(F)F)cc(C(F)(F)F)c1)N1CC[C@H](N2CCC(Oc3nc4ccccc4n3Cc3ccc(F)cc3)CC2)C[C@@H]1Cc1ccccc1` (relative stereo) [Compound 24], the inhibition at 0.03 µM amounted to 100%.
`O=C(c1cc(C(F)(F)F)cc(C(F)(F)F)c1)N1CC[C@@H](N2CCC(Oc3nc4ccccc4n3Cc3ccc(F)cc3)CC2)C[C@@H]1Cc1ccccc1` (relative stereo) [Compound 25] showed an inhibition at 0.03 µM of 100%.
On the same count and under the same terms, then `O=C(c1cc(C(F)(F)F)cc(C(F)(F)F)c1)N1CC[C@H](N2CCC(Nc3nc4ccccc4n3Cc3ccc(F)cc3)CC2)C[C@@H]1Cc1ccccc1` (relative stereo) [Compound 26], with 82.2%; and `O=C(c1cc(C(F)(F)F)cc(C(F)(F)F)c1)N1CC[C@@H](N2CCC(Nc3nc4ccccc4n3Cc3ccc(F)cc3)CC2)C[C@@H]1Cc1ccccc1` (relative stereo) [Compound 27], with 92.8%.
`Cc1ccc(Cn2c(NC3CCN([C@@H]4CCN(C(=O)c5cc(C(F)(F)F)cc(C(F)(F)F)c5)[C@H](Cc5ccccc5)C4)CC3)nc3ccccc32)o1` (relative stereo) [Compound 28]: the inhibition at 0.03 µM came to 100%.
As to `Cc1ccc(Cn2c(NC3CCN([C@@H]4CCN(C(=O)c5cc(C(F)(F)F)cc(C(F)(F)F)c5)[C@@H](Cc5ccccc5)C4)CC3)nc3ccccc32)o1` (relative stereo) [Compound 29], testing at 0.03 µM gave an inhibition of 65.6%.
Consider `Cc1cc(C)cc(C(=O)N2CC[C@@H](N3CCC(Nc4nc5ccccc5n4Cc4ccc(C)o4)CC3)C[C@@H]2Cc2ccccc2)c1` (relative stereo) [Compound 32], for which the inhibition at 0.003 µM came out at 20.1%.
On to `O=C(c1cc(C(F)(F)F)cc(C(F)(F)F)c1)N1CC[C@@H](N2CCC(Cc3nc4ccccc4n3Cc3ccc(F)cc3)CC2)C[C@@H]1Cc1ccccc1` (relative stereo) [Compound 33], for which the inhibition at 0.003 µM amounted to 56.8%.
The compound `O=C(c1cc(C(F)(F)F)cc(C(F)(F)F)c1)N1CC[C@@H](N2CCC(Sc3nc4ccccc4n3Cc3ccc(F)cc3)CC2)C[C@@H]1Cc1ccccc1` (relative stereo) [Compound 35] returned an inhibition at 0.03 µM of 88.5%.
As to `Cc1ncc(Cn2c(OC3CCN([C@@H]4CCN(C(=O)c5cc(C(F)(F)F)cc(C(F)(F)F)c5)[C@H](Cc5ccccc5)C4)CC3)nc3ccccc32)o1` (relative stereo) [Compound 36], the inhibition at 0.003 µM came to 66%.
In turn, `Cc1ncc(Cn2c(OC3CCN([C@@H]4CCN(C(=O)c5cc(C(F)(F)F)cc(C(F)(F)F)c5)[C@@H](Cc5ccccc5)C4)CC3)nc3ccccc32)o1` (relative stereo) [Compound 37] displayed an inhibition at 0.003 µM of 70.5%.
In the case of `O=C(c1cc(C(F)(F)F)cc(C(F)(F)F)c1)N1CC[C@@H](N2CCC(Cc3nc4ccccc4n3Cc3ccc(F)cc3)CC2)C[C@H]1Cc1ccccc1` (relative stereo) [Compound 40], at 0.03 µM the inhibition was 93.3%.
`Cc1ccc(Cn2c(CC3CCN([C@@H]4CCN(C(=O)c5cc(C(F)(F)F)cc(C(F)(F)F)c5)[C@@H](Cc5ccccc5)C4)CC3)nc3ccccc32)o1` (relative stereo) [Compound 41] yielded an inhibition at 0.003 µM of 82.6%.
For the compound `Cc1ccc(Cn2c(CC3CCN([C@@H]4CCN(C(=O)c5cc(C(F)(F)F)cc(C(F)(F)F)c5)[C@H](Cc5ccccc5)C4)CC3)nc3ccccc32)o1` (relative stereo) [Compound 42], the inhibition at 0.03 µM was determined as 96.9%.
`O=C(c1cc(C(F)(F)F)cc(C(F)(F)F)c1)N1CC[C@@H](N2CCC(Nc3nc4ccccc4n3Cc3ccc(CO)o3)CC2)C[C@@H]1Cc1ccccc1` (relative stereo) [Compound 43] registered an inhibition at 0.03 µM of 85.2%.
In the case of `O=C(c1cc(C(F)(F)F)cc(C(F)(F)F)c1)N1CC[C@@H](N2CCC(Nc3nc4ccccc4n3Cc3ccc(CO)o3)CC2)C[C@H]1Cc1ccccc1` (relative stereo) [Compound 44], at 0.03 µM the inhibition was 91.5%.
Compound `Cc1ncc(Cn2c(N[C@@H]3CCN(C(=O)c4ccc5ccccc5c4)[C@@H](Cc4ccccc4)C3)nc3ccccc32)o1` (relative stereo) [Compound 45] registered an inhibition at 0.003 µM of 13.1%.
For `Cc1ncc(Cn2c(N[C@@H]3CCN(C(=O)c4ccco4)[C@@H](Cc4ccccc4)C3)nc3ccccc32)o1` (relative stereo) [Compound 46], the inhibition at 0.003 µM amounted to 17.6%.
`Cc1ncc(Cn2c(NC3CCN([C@@H]4CCN(C(=O)c5cc(Cl)cc(Cl)c5)[C@@H](Cc5ccccc5)C4)CC3)nc3ccccc32)o1` (relative stereo) [Compound 55] gave an inhibition at 0.003 µM of 28.1%.
